Key:
[1] = tested on: monocotyledonous and dicotyledonous weeds; assay: Experiment on weeding effect in post-emergence stage (weeds); type: in vivo; settings: 600 g/ha active ingredient plus water 450 kg/ha, 3 weeks after application, fresh weight control rate; for Amaranthus retroflexus activity level (growth control rate): fomesafen-resistant Amaranthus retroflexus
In short: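 Greenhouse pot-grown weeds and crops sprayed post-emergence 2–3 weeks after sowing with compound in acetone/Tween 80/water. Fresh-weight growth control scored after 3 weeks on a 0–5 scale (5: >85%, 0: <5%).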

[2] = tested on: major crops (wheat, corn, rice, soybean, cotton, oilseed rape, millet, sorghum); assay: Experiment on weeding effect in post-emergence stage (crops); type: in vivo; settings: 600 g/ha active ingredient plus water 450 kg/ha, 3 weeks after application; for corn plant damage level (growth control rate): crop corn; for rice plant damage level (growth control rate): crop rice; for soybean plant damage level (growth control rate): crop soybean
In short: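 Weed and crop seeds were sown in soil-filled pots, covered with 0.5–2 cm soil and grown in a greenhouse. Plants were sprayed 2–3 weeks after sowing using a spray tower, with compound dissolved in acetone plus Tween 80 and diluted in water. Effect was expressed as fresh-weight growth control rate.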

gramineous weeds = settings: in vivo; cited from earlier work

C=CC(=O)N1c2c(F)cc(F)cc2C(=O)N(C(C)C)S1(=O)=O [Compound 216]
Amaranthus retroflexus activity level (growth control rate) [1]: 4 (Level 4: growth control rate is greater than or equal to 60% and less than 85%) | Digitaria sanguinalis activity level (growth control rate) [1]: 3 (Level 3: growth control rate is greater than or equal to 40% and less than 60%) | Echinochloa crus-galli activity level (growth control rate) [1]: 3 (Level 3: growth control rate is greater than or equal to 40% and less than 60%) | Setaria viridis activity level (growth control rate) [1]: 4 (Level 4: growth control rate is greater than or equal to 60% and less than 85%) | corn plant damage level (growth control rate) [2]: 0 (Level 0: growth control rate is less than 5%) | rice plant damage level (growth control rate) [2]: 0 (Level 0: growth control rate is less than 5%)

CC(C)N1C(=O)c2cc(F)cc(F)c2N(C(=O)C2CC2)S1(=O)=O [Compound 217]
Amaranthus retroflexus activity level (growth control rate) [1]: 5 (Level 5: growth control rate is above 85%) | Digitaria sanguinalis activity level (growth control rate) [1]: 5 (Level 5: growth control rate is above 85%) | Echinochloa crus-galli activity level (growth control rate) [1]: 5 (Level 5: growth control rate is above 85%) | Setaria viridis activity level (growth control rate) [1]: 5 (Level 5: growth control rate is above 85%) | corn plant damage level (growth control rate) [2]: 1 (Level 1: growth control rate is greater than or equal to 500 and less than 200%)

CCCOC(=O)N1c2c(F)cc(F)cc2C(=O)N(C(C)C)S1(=O)=O [Compound 218]
Amaranthus retroflexus activity level (growth control rate) [1]: 5 (Level 5: growth control rate is above 85%) | Echinochloa crus-galli activity level (growth control rate) [1]: 4 (Level 4: growth control rate is greater than or equal to 60% and less than 85%) | Setaria viridis activity level (growth control rate) [1]: 5 (Level 5: growth control rate is above 85%) | corn plant damage level (growth control rate) [2]: 0 (Level 0: growth control rate is less than 5%) | rice plant damage level (growth control rate) [2]: 1 (Level 1: growth control rate is greater than or equal to 500 and less than 200%)

CC(C)OC(=O)N1c2c(F)cc(F)cc2C(=O)N(C(C)C)S1(=O)=O [Compound 219]
Amaranthus retroflexus activity level (growth control rate) [1]: 5 (Level 5: growth control rate is above 85%) | Digitaria sanguinalis activity level (growth control rate) [1]: 3 (Level 3: growth control rate is greater than or equal to 40% and less than 60%) | Echinochloa crus-galli activity level (growth control rate) [1]: 5 (Level 5: growth control rate is above 85%) | Setaria viridis activity level (growth control rate) [1]: 5 (Level 5: growth control rate is above 85%) | corn plant damage level (growth control rate) [2]: 1 (Level 1: growth control rate is greater than or equal to 500 and less than 200%)

CCCCOC(=O)N1c2c(F)cc(F)cc2C(=O)N(C(C)C)S1(=O)=O [Compound 220]
Amaranthus retroflexus activity level (growth control rate) [1]: 4 (Level 4: growth control rate is greater than or equal to 60% and less than 85%) | Digitaria sanguinalis activity level (growth control rate) [1]: 3 (Level 3: growth control rate is greater than or equal to 40% and less than 60%) | Echinochloa crus-galli activity level (growth control rate) [1]: 5 (Level 5: growth control rate is above 85%) | Setaria viridis activity level (growth control rate) [1]: 5 (Level 5: growth control rate is above 85%) | corn plant damage level (growth control rate) [2]: 1 (Level 1: growth control rate is greater than or equal to 500 and less than 200%)

CCCCCCCCSC(=O)N1c2c(F)cc(F)cc2C(=O)N(C(C)C)S1(=O)=O [Compound 222]
Amaranthus retroflexus activity level (growth control rate) [1]: 5 (Level 5: growth control rate is above 85%) | corn plant damage level (growth control rate) [2]: 0 (Level 0: growth control rate is less than 5%) | rice plant damage level (growth control rate) [2]: 0 (Level 0: growth control rate is less than 5%)

CC(C)N1C(=O)c2cc(F)cc(F)c2N(C(=O)N(C)C)S1(=O)=O [Compound 223]
Amaranthus retroflexus activity level (growth control rate) [1]: 5 (Level 5: growth control rate is above 85%) | Digitaria sanguinalis activity level (growth control rate) [1]: 5 (Level 5: growth control rate is above 85%) | Echinochloa crus-galli activity level (growth control rate) [1]: 3 (Level 3: growth control rate is greater than or equal to 40% and less than 60%) | Setaria viridis activity level (growth control rate) [1]: 5 (Level 5: growth control rate is above 85%) | corn plant damage level (growth control rate) [2]: 0 (Level 0: growth control rate is less than 5%) | rice plant damage level (growth control rate) [2]: 0 (Level 0: growth control rate is less than 5%)

CCCS(=O)(=O)N1c2c(F)cc(F)cc2C(=O)N(C(C)C)S1(=O)=O [Compound 229]
Amaranthus retroflexus activity level (growth control rate) [1]: 3 (Level 3: growth control rate is greater than or equal to 40% and less than 60%) | corn plant damage level (growth control rate) [2]: 1 (Level 1: growth control rate is greater than or equal to 500 and less than 200%)

CC(C)N1C(=O)c2cccc(F)c2NS1(=O)=O [D, reference compound]
Amaranthus retroflexus activity level (growth control rate) [1]: 2 (Level 2: growth control rate is greater than or equal to 20% and less than 40%) | Digitaria sanguinalis activity level (growth control rate) [1]: 1 (Level 1: growth control rate is greater than or equal to 500 and less than 200%) | Echinochloa crus-galli activity level (growth control rate) [1]: 1 (Level 1: growth control rate is greater than or equal to 500 and less than 200%) | Setaria viridis activity level (growth control rate) [1]: 2 (Level 2: growth control rate is greater than or equal to 20% and less than 40%) | corn plant damage level (growth control rate) [2]: 0 (Level 0: growth control rate is less than 5%) | rice plant damage level (growth control rate) [2]: 0 (Level 0: growth control rate is less than 5%) | soybean plant damage level (growth control rate) [2]: 1 (Level 1: growth control rate is greater than or equal to 500 and less than 200%)

O=C1c2c(cc(F)c(F)c2F)NS(=O)(=O)N1CCl [E, reference compound]
Amaranthus retroflexus activity level (growth control rate) [1]: 2 (Level 2: growth control rate is greater than or equal to 20% and less than 40%) | Digitaria sanguinalis activity level (growth control rate) [1]: 1 (Level 1: growth control rate is greater than or equal to 500 and less than 200%) | Echinochloa crus-galli activity level (growth control rate) [1]: 1 (Level 1: growth control rate is greater than or equal to 500 and less than 200%) | Setaria viridis activity level (growth control rate) [1]: 2 (Level 2: growth control rate is greater than or equal to 20% and less than 40%) | corn plant damage level (growth control rate) [2]: 1 (Level 1: growth control rate is greater than or equal to 500 and less than 200%) | rice plant damage level (growth control rate) [2]: 1 (Level 1: growth control rate is greater than or equal to 500 and less than 200%) | soybean plant damage level (growth control rate) [2]: 1 (Level 1: growth control rate is greater than or equal to 500 and less than 200%)

CC(C)N1C(=O)c2cccnc2NS1(=O)=O [F, reference compound]
Amaranthus retroflexus activity level (growth control rate) [1]: 2 (Level 2: growth control rate is greater than or equal to 20% and less than 40%) | Digitaria sanguinalis activity level (growth control rate) [1]: 2 (Level 2: growth control rate is greater than or equal to 20% and less than 40%) | Echinochloa crus-galli activity level (growth control rate) [1]: 2 (Level 2: growth control rate is greater than or equal to 20% and less than 40%) | Setaria viridis activity level (growth control rate) [1]: 2 (Level 2: growth control rate is greater than or equal to 20% and less than 40%) | corn plant damage level (growth control rate) [2]: 1 (Level 1: growth control rate is greater than or equal to 500 and less than 200%) | rice plant damage level (growth control rate) [2]: 1 (Level 1: growth control rate is greater than or equal to 500 and less than 200%) | soybean plant damage level (growth control rate) [2]: 1 (Level 1: growth control rate is greater than or equal to 500 and less than 200%)

CC(C)N1C(=O)c2ccccc2NS1(=O)=O [G, reference compound]
Amaranthus retroflexus activity level (growth control rate) [1]: 1 (Level 1: growth control rate is greater than or equal to 500 and less than 200%) | Digitaria sanguinalis activity level (growth control rate) [1]: 0 (Level 0: growth control rate is less than 5%) | Echinochloa crus-galli activity level (growth control rate) [1]: 0 (Level 0: growth control rate is less than 5%) | Setaria viridis activity level (growth control rate) [1]: 1 (Level 1: growth control rate is greater than or equal to 500 and less than 200%) | corn plant damage level (growth control rate) [2]: 0 (Level 0: growth control rate is less than 5%) | rice plant damage level (growth control rate) [2]: 1 (Level 1: growth control rate is greater than or equal to 500 and less than 200%) | soybean plant damage level (growth control rate) [2]: 1 (Level 1: growth control rate is greater than or equal to 500 and less than 200%)

CC(C)N1C(=O)c2ccccc2NS1(=O)=O [bentazone]
effect on gramineous weeds (gramineous weeds): ineffective

From US12441695B2, “Substituted thiadiazinone dioxide and preparation method therefor, herbicidal composition, and application therefor” (Qingdao Kingagroot Chemical Compound Co., Ltd., priority 2019, dated 2025)
